Each block holds one molecule with its values, some of them ahead of it.
How the values were obtained:
Assay type in all cases: ADME, organism-based
Conditions in all cases: in vivo; call rule not given here
Rattus norvegicus [1] = test: Total drug recovery in Sprague-Dawley rat at 2 mg/kg, po measured over 48 hrs by liquid scintillation counting analysis; parameters: dose 2 mg/kg, route oral
Plasma [2] = test: Drug metabolism in Sprague-Dawley rat plasma assessed as formation of (S)-2-((1S,2S,4R)-bicyclo[2.2.1]heptan-2-ylamino)-5-((R)-1-hydroxypropan-2-yl)-5-methylthiazol-4(5H)-one at 2 mg/kg, po measured at 0.5 hrs by LC-MS/HPLC radiometric analysis; parameters: dose 2 mg/kg, route oral
[3] = Drug metabolism in Sprague-Dawley rat urine assessed as formation of (S)-2-((1S,2S,4R,6R)-6-hydroxybicyclo[2.2.1]heptan-2-ylamino)-5-isopropyl-5-methylthiazol-4(5H)-one at 2 mg/kg, po measured over 24 hrs by LC-MS/HPLC radiometric analysis; parameters: dose 2 mg/kg, route oral
[4] = Drug metabolism in Sprague-Dawley rat urine assessed as formation of trihydroxy norbornyl metabolite at 2 mg/kg, po measured over 24 hrs by LC-MS/HPLC radiometric analysis; parameters: dose 2 mg/kg, route oral
[5] = Drug metabolism in Sprague-Dawley rat urine assessed as formation of (S)-2-((1R,2S,4R,5S)-5-hydroxybicyclo[2.2.1]heptan-2-ylamino)-5-(2-hydroxypropan-2-yl)-5-methylthiazol-4(5H)-one at 2 mg/kg, po measured over 24 hrs by LC-MS/HPLC radiometric analysis; parameters: dose 2 mg/kg, route oral
Plasma [6] = test: Drug level in Sprague-Dawley rat plasma at 2 mg/kg, po measured at 0.5 hrs by LC-MS/HPLC radiometric analysis; parameters: dose 2 mg/kg, route oral
[7] = Drug recovery in feces of Sprague-Dawley rat at 2 mg/kg, po measured over 48 hrs by liquid scintillation counting analysis; parameters: dose 2 mg/kg, route oral
[8] = Drug metabolism in Sprague-Dawley rat urine assessed as formation of (S)-2-((1R,2S,4R,5R)-5-hydroxybicyclo[2.2.1]heptan-2-ylamino)-5-isopropyl-5-methylthiazol-4(5H)-one at 2 mg/kg, po measured over 24 hrs by LC-MS/HPLC radiometric analysis; parameters: dose 2 mg/kg, route oral
[9] = Drug metabolism in Sprague-Dawley rat urine assessed as formation of (S)-2-((1S,2S,4R,6R)-6-hydroxybicyclo[2.2.1]heptan-2-ylamino)-5-((S)-1-hydroxypropan-2-yl)-5-methylthiazol-4(5H)-one at 2 mg/kg, po measured over 24 hrs by LC-MS/HPLC radiometric analysis; parameters: route oral, dose 2 mg/kg
[10] = Drug level in Sprague-Dawley rat feces at 2 mg/kg, po measured over 24 hrs by LC-MS/HPLC radiometric analysis; parameters: dose 2 mg/kg, route oral
[11] = Drug metabolism in Sprague-Dawley rat urine assessed as formation of (S)-2-((1R,2S,4R,5S)-5-hydroxybicyclo[2.2.1]heptan-2-ylamino)-5-isopropyl-5-methylthiazol-4(5H)-one at 2 mg/kg, po measured over 24 hrs by LC-MS/HPLC radiometric analysis; parameters: dose 2 mg/kg, route oral
[12] = Drug metabolism in Sprague-Dawley rat urine assessed as formation of (S)-2-((1R,2S,4R,5S)-5-hydroxybicyclo[2.2.1]heptan-2-ylamino)-5-((S)-1-hydroxypropan-2-yl)-5-methylthiazol-4(5H)-one at 2 mg/kg, po measured over 24 hrs by LC-MS/HPLC radiometric analysis; parameters: dose 2 mg/kg, route oral
Plasma [13] = test: Drug metabolism in Sprague-Dawley rat plasma assessed as formation of (S)-2-((1S,2S,4R)-bicyclo[2.2.1]heptan-2-ylamino)-5-((S)-1-hydroxypropan-2-yl)-5-methylthiazol-4(5H)-one at 2 mg/kg, po measured at 0.5 hrs by LC-MS/HPLC radiometric analysis; parameters: dose 2 mg/kg, route oral
Plasma [14] = test: Drug metabolism in Sprague-Dawley rat plasma assessed as formation of (S)-2-((1R,2S,4R,5R)-5-hydroxybicyclo[2.2.1]heptan-2-ylamino)-5-isopropyl-5-methylthiazol-4(5H)-one at 2 mg/kg, po measured at 0.5 hrs by LC-MS/HPLC radiometric analysis; parameters: dose 2 mg/kg, route oral
[15] = Drug level in Sprague-Dawley rat urine at 2 mg/kg, po measured over 24 hrs by LC-MS/HPLC radiometric analysis; parameters: dose 2 mg/kg, route oral
[16] = Drug recovery in urine of Sprague-Dawley rat at 2 mg/kg, po measured over 48 hrs by liquid scintillation counting analysis; parameters: dose 2 mg/kg, route oral
[17] = Drug metabolism in Sprague-Dawley rat feces assessed as formation of trihydroxy norbornyl metabolite at 2 mg/kg, po measured over 24 hrs by LC-MS/HPLC radiometric analysis; parameters: dose 2 mg/kg, route oral
[18] = Drug metabolism in Sprague-Dawley rat urine assessed as formation of (S)-5-isopropyl-5-methyl-2-((1R,2S,4R)-5-oxobicyclo[2.2.1]heptan-2-ylamino)thiazol-4(5H)-one at 2 mg/kg, po measured over 24 hrs by LC-MS/HPLC radiometric analysis; parameters: dose 2 mg/kg, route oral
Plasma [19] = test: Drug metabolism in Sprague-Dawley rat plasma assessed as formation of (S)-5-isopropyl-5-methyl-2-((1R,2S,4R)-5-oxobicyclo[2.2.1]heptan-2-ylamino)thiazol-4(5H)-one at 2 mg/kg, po measured at 0.5 hrs by LC-MS/HPLC radiometric analysis; parameters: dose 2 mg/kg, route oral
[20] = Drug metabolism in Sprague-Dawley rat feces assessed as formation of (1R,2R,4R,5S)-5-((S)-5-isopropyl-5-methyl-4-oxo-4,5-dihydrothiazol-2-ylamino)bicyclo[2.2.1]heptan-2-yl hydrogen sulfate at 2 mg/kg, po measured over 24 hrs by LC-MS/HPLC radiometric analysis; parameters: dose 2 mg/kg, route oral
[21] = Drug metabolism in Sprague-Dawley rat urine assessed as formation of (S)-2-((1S,2S,4R)-bicyclo[2.2.1]heptan-2-ylamino)-5-((R)-1-hydroxypropan-2-yl)-5-methylthiazol-4(5H)-one at 2 mg/kg, po measured over 24 hrs by LC-MS/HPLC radiometric analysis; parameters: dose 2 mg/kg, route oral
Plasma [22] = test: Drug metabolism in Sprague-Dawley rat plasma assessed as formation of (S)-2-((1R,2S,4R,5S)-5-hydroxybicyclo[2.2.1]heptan-2-ylamino)-5-isopropyl-5-methylthiazol-4(5H)-one at 2 mg/kg, po measured at 0.5 hrs by LC-MS/HPLC radiometric analysis; parameters: dose 2 mg/kg, route oral
[23] = Drug recovery in feces of Sprague-Dawley rat at 5 mg/kg, po measured after 72 hrs by liquid scintillation counting analysis; parameters: dose 5 mg/kg, route oral
[24] = Drug recovery in urine of Sprague-Dawley rat at 5 mg/kg, po measured after 72 hrs by liquid scintillation counting analysis; parameters: dose 5 mg/kg, route oral
[25] = Drug recovery in bile of bile duct cannulated Sprague-Dawley rat at 5 mg/kg, po measured over 48 hrs by liquid scintillation counting analysis; parameters: dose 5 mg/kg, route oral
Plasma [26] = test: Drug level in Sprague-Dawley rat plasma at 5 mg/kg, po measured after 72 hrs by liquid scintillation counting analysis; parameters: dose 5 mg/kg, route oral
[27] = Drug metabolism in Sprague-Dawley rat urine assessed as formation of (S)-2-((1R,2S,4R,5R)-5-hydroxybicyclo[2.2.1]heptan-2-ylamino)-5-((S)-1-hydroxypropan-2-yl)-5-methylthiazol-4(5H)-one at 5 mg/kg, po measured over 24 hrs by LC-MS/HPLC radiometric analysis; parameters: dose 5 mg/kg, route oral
[28] = Drug recovery in urine of bile duct cannulated Sprague-Dawley rat at 5 mg/kg, po measured over 48 hrs by liquid scintillation counting analysis; parameters: dose 5 mg/kg, route oral
[29] = Drug metabolism in Sprague-Dawley rat urine assessed as formation of (S)-2-((1R,2S,4R,5S)-5-hydroxybicyclo[2.2.1]heptan-2-ylamino)-5-(2-hydroxypropan-2-yl)-5-methylthiazol-4(5H)-one at 5 mg/kg, po measured over 24 hrs by LC-MS/HPLC radiometric analysis; parameters: dose 5 mg/kg, route oral
[30] = Drug metabolism in Sprague-Dawley rat urine assessed as formation of (2S,3S,4S,5R)-3,4,5-trihydroxy-6-((1R,2S,4R,5S)-5-((S)-5-isopropyl-5-methyl-4-oxo-4,5-dihydrothiazol-2-ylamino)bicyclo[2.2.1]heptan-2-yloxy)tetrahydro-2H-pyran-2-carboxylic acid at 5 mg/kg, po measured over 48 hrs by LC-MS/HPLC radiometric analysis; parameters: dose 5 mg/kg, route oral
[31] = Drug metabolism in Sprague-Dawley rat urine assessed as formation of (S)-5-isopropyl-5-methyl-2-((1R,2S,4R)-5-oxobicyclo[2.2.1]heptan-2-ylamino)thiazol-4(5H)-one at 5 mg/kg, po measured over 24 hrs by LC-MS/HPLC radiometric analysis; parameters: dose 5 mg/kg, route oral
[32] = Drug metabolism in Sprague-Dawley rat urine assessed as formation of (S)-2-((1R,2S,4R,5S)-5-hydroxybicyclo[2.2.1]heptan-2-ylamino)-5-((R)-1-hydroxypropan-2-yl)-5-methylthiazol-4(5H)-one at 5 mg/kg, po measured over 24 hrs by LC-MS/HPLC radiometric analysis; parameters: dose 5 mg/kg, route oral
[33] = Retention time of the compound in Sprague-Dawley rat feces treated with [14C]-AMG 221 at 2 mg/kg, po measured over 48 hrs by LC-MS/HPLC radiometric analysis; parameters: dose 2 mg/kg, route oral
[34] = Drug excretion in female Sprague-Dawley rat feces treated with [14C]-AMG 221 at 2 mg/kg, po measured over 24 hrs by LC-MS/HPLC radiometric analysis; parameters: dose 2 mg/kg, route oral
[35] = Drug level in Sprague-Dawley rat feces treated with [14C]AMG221 at 2 mg/kg, po measured over 24 hrs by LC-MS/HPLC radiometric analysis; parameters: dose 2 mg/kg, route oral
Rattus norvegicus [36] = test: Total drug recovery in female Sprague-Dawley rat treated with [14C]-AMG 221 at 2 mg/kg, po measured over 48 hrs by liquid scintillation counting analysis; parameters: dose 2 mg/kg, route oral
[37] = Drug excretion in male Sprague-Dawley rat feces treated with [14C]-AMG 221 at 2 mg/kg, po measured over 24 hrs by LC-MS/HPLC radiometric analysis; parameters: dose 2 mg/kg, route oral

Drug recovery (Rattus norvegicus [1]): 81%
Drug metabolism (Plasma [2]): metabolite_detected
Drug metabolism [3]: metabolite_detected
Drug metabolism [4]: metabolite_detected
Drug metabolism [5]: metabolite_detected
Drug uptake (Plasma [6]): Active
Drug recovery [7]: 14%
Drug metabolism [8]: metabolite_detected
Drug metabolism [9]: metabolite_detected
Drug uptake [10]: Not Active
Drug metabolism [11]: metabolite_detected
Drug metabolism [12]: metabolite_detected
Drug metabolism (Plasma [13]): metabolite_detected
Drug metabolism (Plasma [14]): metabolite_detected
Drug uptake [15]: Not Active
Drug recovery [16]: 64%
Drug metabolism [17]: metabolite_detected
Drug metabolism [18]: metabolite_detected
Drug metabolism (Plasma [19]): metabolite_detected
Drug metabolism [20]: metabolite_detected
Drug metabolism [21]: metabolite_detected
Drug metabolism (Plasma [22]): metabolite_detected
Compound: CC(C)[C@]1([14CH3])SC(N[C@H]2C[C@@H]3CC[C@H]2C3)=NC1=O

Drug recovery [23]: 7%
Drug recovery [24]: 89%
Drug recovery [25]: 10%
Drug uptake (Plasma [26]): Active
Drug metabolism [27]: metabolite_detected
Drug recovery [28]: 55%
Drug uptake [15]: Active
Drug metabolism [29]: metabolite_detected
Drug metabolism [30]: metabolite_detected
Drug metabolism [31]: metabolite_detected
Drug metabolism [32]: metabolite_detected
Compound: CC(C)[C@]1([14CH3])SC(N[C@H]2C[C@H]3C[C@@H]2C[C@@H]3O)=NC1=O

Retention_time [33]: 23.2 min
Drug excretion [34]: 6%
Drug metabolism [35]: metabolite_detected
Drug recovery (Rattus norvegicus [36]): 6%
Drug excretion [37]: metabolite_not_detected
Compound: CC(C)[C@]1(C)SC(N[C@H]2C[C@H]3C[C@@H]2C[C@@H]3OS(=O)(=O)O)=NC1=O

From ChEMBL document CHEMBL3525943, “Regiospecific and stereospecific triangulation of the structures of metabolites formed by sequential metabolism at multiple prochiral centers” (Drug Metab Dispos, 2012)
